{"source": "patent US20200061092A1", "about": "“METHODS AND COMPOSITIONS FOR TREATING DISORDERS ASSOCIATED WITH MUSCLE WEAKNESS” (priority 2018, published 2020)", "key": {"[1]": {"system": "ribitol, ribitol-5P and CDP-ribitol levels in heart and quadriceps", "test": "LC/MS-MS quantification of ribitol, ribitol-5P and CDP-ribitol in muscle tissues of P448L mice", "assay_type": "in vivo, mouse", "conditions": "5% ribitol 1 month", "method": "Ribitol was purchased from Sigma (A5502 Adonitol, ≥98%, Sigma, St. Louis) and dissolved in drinking water to the final concentration of 5% or 10%. […] mice aged at 4 weeks were treated with 5% ribitol drinking water for 1 month and […] mice aged at 7 weeks were treated with 5% ribitol drinking water for 3 months and 6 months. All the mice were randomly assigned to either treatment or control groups. And a minimum number of 4 mice were used for each group. No animal was excluded. […] female breeders were given 10% ribitol in drinking water during pregnancy, and pups continued to be treated with 10% ribitol in drinking water until they were euthanized at 19 weeks of age. Untreated age-matched […] and wild-type C57BL/6 mice were used as controls. The animals were terminated at the end of each treatment time point and tissues including heart, diaphragm, TA, quadriceps, liver, spleen and kidney were collected for analyses. Ribitol was purchased from Sigma (A5502). […] The supernatants were removed, transferred to individual wells of 96-well plate and analyzed by LC/MS-MS. […] The metabolites were analyzed using electrospray ionization mass spectrometry operated in positive ion mode, ESI+. Compounds concentration in tissue samples were determined based on standard curves prepared by serial dilutions (200-0.01 μM) of each of the compound in MeOH:ACN (1:1)."}, "[2]": {"system": "FKRP and LARGE transcripts", "test": "Quantitative real-time PCR of FKRP and LARGE transcripts in muscles of P448L mice", "assay_type": "in vivo, mouse", "conditions": "5% ribitol, 3 months (FIG. 11b); cardiac muscle, limb muscle, diaphragm", "method": "Tissues were collected from heart, diaphragm and tibialis anterior. RNA was extracted using TRIzol (Invitrogen) following the supplied protocol. Final RNA pellet was re-suspended in 20 μl RNAse-nuclease free water. Final RNA concentration was determined using Nanodrop 2000c. One μg of RNA was subsequently converted to cDNA using the High-Capacity RNA-to-cDNA™ Kit (Applied Biosystems) following the supplied protocol. cDNA was then used for quantitative real-time PCR using the mouse FKRP-FAM (Mm00557870_m1) and LARGE-FAM (Mm00521885 ml) taqman assay with primer limited GAPDH-VIC (Mm99999915_g1) as the internal control and TaqMan® Universal Master Mix II, with UNG (Life Technologies). […] Results of FKRP and LARGE transcript were calculated and expressed as 2^-ΔΔCt and compared across tissues and animals."}}, "data": [{"molecule": "OC[C@@H](O)[C@@H](O)[C@@H](O)CO", "note": "[ribitol]", "values": [{"measurement": "Levels of ribitol, ribitol-5P and CDP-ribitol vs untreated P448L", "setting": "[1]; heart and quadricep", "result": "increased levels"}, {"measurement": "CDP-ribitol levels, treated vs untreated", "setting": "[1]; heart and quadriceps", "result": "at least 4 fold"}, {"measurement": "FKRP and LARGE transcript levels, treated vs untreated", "setting": "[2]", "result": "No statistically significant difference"}]}]}
